The record followed here is ChEMBL document CHEMBL4229387, “Recent progress of the development of dipeptidyl peptidase-4 inhibitors for the treatment of type 2 diabetes mellitus” (Eur J Med Chem, 2018).

Peptide text beside a SMILES is read from it.

Usually IC50 stands for the point on the concentration scale where inhibition reaches its midpoint. As a reminder, the half-life is how long it takes for the measured level to halve.

T2 sequence (P22411 whole entry): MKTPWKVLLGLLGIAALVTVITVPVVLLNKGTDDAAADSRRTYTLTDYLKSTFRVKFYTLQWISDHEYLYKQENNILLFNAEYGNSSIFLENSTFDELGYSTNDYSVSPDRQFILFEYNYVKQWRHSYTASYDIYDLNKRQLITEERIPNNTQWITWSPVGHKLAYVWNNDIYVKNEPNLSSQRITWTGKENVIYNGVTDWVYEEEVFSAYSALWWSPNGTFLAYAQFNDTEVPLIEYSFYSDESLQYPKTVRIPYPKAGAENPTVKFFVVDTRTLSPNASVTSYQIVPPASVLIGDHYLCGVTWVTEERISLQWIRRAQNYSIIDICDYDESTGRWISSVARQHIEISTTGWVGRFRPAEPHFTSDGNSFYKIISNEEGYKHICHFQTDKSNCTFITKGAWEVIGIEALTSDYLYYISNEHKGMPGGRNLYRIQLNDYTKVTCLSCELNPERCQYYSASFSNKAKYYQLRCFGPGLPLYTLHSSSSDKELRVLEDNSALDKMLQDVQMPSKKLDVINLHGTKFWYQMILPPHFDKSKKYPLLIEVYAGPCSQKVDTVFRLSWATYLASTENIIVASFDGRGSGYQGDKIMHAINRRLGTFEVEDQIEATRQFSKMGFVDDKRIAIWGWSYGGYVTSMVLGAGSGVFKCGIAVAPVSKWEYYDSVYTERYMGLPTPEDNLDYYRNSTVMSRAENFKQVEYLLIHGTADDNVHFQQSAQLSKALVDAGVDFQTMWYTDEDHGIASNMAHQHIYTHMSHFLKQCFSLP

The target in one data set is T1, Dipeptidyl peptidase 4 (Homo sapiens, UniProt P27487). In words: Inhibition of recombinant human DPP4 using Gly-Pro-AMC as substrate after 1 hr by fluorescence assay.
Details: not given
Target sequence in this assay (P27487 whole entry): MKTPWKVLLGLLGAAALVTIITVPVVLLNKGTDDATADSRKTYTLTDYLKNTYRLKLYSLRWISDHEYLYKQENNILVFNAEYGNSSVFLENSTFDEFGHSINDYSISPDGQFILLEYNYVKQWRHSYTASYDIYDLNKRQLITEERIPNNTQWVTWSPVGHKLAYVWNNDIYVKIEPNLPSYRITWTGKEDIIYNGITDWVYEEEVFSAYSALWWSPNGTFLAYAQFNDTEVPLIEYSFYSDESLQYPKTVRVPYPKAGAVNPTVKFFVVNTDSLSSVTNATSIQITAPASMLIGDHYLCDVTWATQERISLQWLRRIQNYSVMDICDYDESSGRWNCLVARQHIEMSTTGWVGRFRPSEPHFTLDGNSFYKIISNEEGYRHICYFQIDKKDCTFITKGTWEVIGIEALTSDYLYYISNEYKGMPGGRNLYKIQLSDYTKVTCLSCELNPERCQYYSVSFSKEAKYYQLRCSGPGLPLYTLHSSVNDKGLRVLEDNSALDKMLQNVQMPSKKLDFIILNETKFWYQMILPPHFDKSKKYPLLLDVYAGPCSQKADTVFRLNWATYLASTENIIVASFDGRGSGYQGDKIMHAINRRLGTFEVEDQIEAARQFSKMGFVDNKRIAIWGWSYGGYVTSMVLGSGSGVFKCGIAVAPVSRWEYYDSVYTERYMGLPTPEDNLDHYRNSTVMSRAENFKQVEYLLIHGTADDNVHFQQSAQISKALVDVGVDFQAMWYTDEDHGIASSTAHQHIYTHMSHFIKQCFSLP
Take `N[C@@H](CCn1cc(-c2ccncc2)nn1)Cc1cc(F)c(F)cc1F`: the IC50 is 14 nM.

The next data set has as its target T1, Dipeptidyl peptidase 4. In words: Inhibition of recombinant human DPP4 using H-Gly-Pro-AMC as substrate after 30 mins by fluorometric analysis.
Details: not given
Target sequence in this assay (P27487 whole entry): as above
Turning to `O=C(CNC(=O)C1CCCN(S(=O)(=O)c2ccccc2)C1)Nc1ccc(Cl)cc1` (centres undefined), the IC50 is 94.8 nM.

System in a further data set: not listed separately
In words: Elimination half life in human. To be noted: in vivo.
In turn, `N#C[C@@H]1C[C@@H]2C[C@@H]2N1C(=O)[C@@H](N)C12CC3CC(CC(C3)C1)C2` showed a half-life of 2 to 4 h.

For the compound `CC1(C)CCC(=O)N(C[C@@H](N)CC(=O)N2CCc3c(nc(C(F)(F)F)nc3C(F)(F)F)C2)C1`, the half-life fell in the range of 16.7 to 21.3 h.

`Cn1c(=O)cc(N2CCC[C@@H](N)C2)n(Cc2ccccc2C#N)c1=O` [ALOGLIPTIN] gave a half-life of 21.1 h. Same read-out and setting: to `Cc1cc2ncc(C(=O)NCC(C)(C)NCC(=O)N3CCC[C@H]3C#N)cn2n1` [ANAGLIPTIN] belongs 5.8 to 6.2 h; to `CC(C)(C)OC[C@@H]1C(=O)NCCN1C(=O)C[C@H](N)Cc1cc(F)c(F)cc1F` [EVOGLIPTIN], 32.5 to 39.8 h; to `O=C([C@@H]1C[C@H](N2CCN(c3ncccn3)CC2)CN1)N1CCC(F)(F)C1` [GOSOGLIPTIN], 63.5 h. Still for that read-out and setting: next, `CC#CCn1c(N2CCC[C@@H](N)C2)nc2c1c(=O)n(Cc1nc(C)c3ccccc3n1)c(=O)n2C` [LINAGLIPTIN]: 10 to 40 h. The same measure, in the same setting: to `CS(=O)(=O)n1cc2c(n1)CN([C@H]1CO[C@H](c3cc(F)ccc3F)[C@@H](N)C1)C2` [OMARIGLIPTIN] belongs 11 to 22 h; to `N[C@@H](CC(=O)N1CCn2c(nnc2C(F)(F)F)C1)Cc1cc(F)c(F)cc1F` [SITAGLIPTIN], 8 to 24 h. Take `Cc1cc(N2CCN([C@@H]3CN[C@H](C(=O)N4CCSC4)C3)CC2)n(-c2ccccc2)n1` [TENELIGLIPTIN]: the half-life was 26.9 h. Still for that read-out and setting: to `Cn1c(=O)cc(N2CCC[C@@H](N)C2)n(Cc2cc(F)ccc2C#N)c1=O` [TRELAGLIPTIN] belongs 38.4 to 54.3 h.

The target in the next data set is T1, Dipeptidyl peptidase 4. In words: Inhibition of recombinant human DPP4 pre-incubated for 30 mins before Gly-Pro-Aminomethylcoumarin substrate addition.
Details: not given
Target sequence in this assay (P27487 whole entry): as above
`CC(C)=CCn1c(N2CCCC(N)C2)nc2c1c(=O)n(Cc1ccccc1C#N)c(=O)n2C` (centres undefined): the IC50 stood at 19.6 nM.

The target in a further data set is T1, Dipeptidyl peptidase 4. In words: Inhibition of DPP4 (unknown origin).
Details: not given
Target sequence in this assay (P27487 whole entry, looked up): as the sequence (P27487 whole entry) above
Consider `CC#CCn1c(N2CCC[C@@H](N)C2)cc(=O)n(Cc2cn(CCC(=O)OC)nn2)c1=O`, for which the half-inhibitory concentration (IC50) was 64.3 nM.

For a further data set, the target named is T1, Dipeptidyl peptidase 4. In words: Inhibition of DPP4 (unknown origin) using Gly-Pro-AMC as substrate preincubated for 4 secs followed by substrate addition and measured after 30 mins by […] assay.
Details: not given
Target sequence in this assay (P27487 whole entry): as above
`O=c1cc(-c2ccc(O)cc2)oc2cc(O)cc(O)c12` [APIGENIN] came in with an IC50 of 140 nM.

As for `O=C(O)/C=C/c1ccc(O)c(O)c1` [CAFFEIC ACID], the IC50 turned out to be 3370 nM.

The compound `Oc1cc(O)c2cc(O)c(-c3ccc(O)c(O)c3)[o+]c2c1` [CYANIDIN CHLORIDE] came in with an IC50 of 1410 nM. On the same count and under the same terms, to `O=C(O[C@@H]1Cc2c(O)cc(O)cc2O[C@@H]1c1cc(O)c(O)c(O)c1)c1cc(O)c(O)c(O)c1` [EPIGALOCATECHIN GALLATE] belongs 10200 nM. In the case of `C[C@@H]1O[C@@H](OC[C@H]2O[C@@H](Oc3cc(O)c4c(c3)O[C@H](c3ccc(O)c(O)c3)CC4=O)[C@H](O)[C@@H](O)[C@@H]2O)[C@H](O)[C@H](O)[C@H]1O` [ERIOCITRIN], the IC50 came out at 10400 nM. On the same count and under the same terms, to `O=c1cc(-c2ccccc2)oc2ccccc12` [FLAVONE] belongs 170 nM; to `O=C(O)c1cc(O)c(O)c(O)c1` [GALLIC ACID], 4650 nM; to `O=c1c(-c2ccc(O)cc2)coc2cc(O)cc(O)c12` [GENISTEIN], 480 nM.

`COc1ccc([C@@H]2CC(=O)c3c(O)cc(O)cc3O2)cc1O` [HESPERETIN] had an IC50 of 280 nM.

`O=c1c(O)c(-c2ccc(O)cc2)oc2cc(O)cc(O)c12` [KAEMPFEROL]: the IC50 came to 490 nM.

For `OC[C@H]1O[C@@H](Oc2cc3c(O)cc(O)cc3[o+]c2-c2ccc(O)c(O)c2)[C@H](O)[C@@H](O)[C@@H]1O` [KUROMANIN], 420 nM corresponded to half-maximal inhibition (IC50). Still for that read-out and setting: next, `O=c1cc(-c2ccc(O)c(O)c2)oc2cc(O)cc(O)c12` [LUTEOLIN]: 120 nM; `COc1cc(-c2[o+]c3cc(O)cc(O)c3cc2O)cc(OC)c1O` [MALVIDIN CHLORIDE]: 1410 nM; `O=C1C[C@@H](c2ccc(O)cc2)Oc2cc(O)cc(O)c21` [NARINGENIN]: 240 nM.

In turn, `O=c1c(O)c(-c2ccc(O)c(O)c2)oc2cc(O)cc(O)c12` [QUERCETIN] yielded an IC50 of 2920 nM. Same read-out and setting: next, `Oc1ccc(/C=C/c2cc(O)cc(O)c2)cc1` [RESVERATROL]: 0.6 nM.

The target of the next data set is T1, Dipeptidyl peptidase 4. In words: Inhibition of DPP4 (unknown origin) using Gly-Pro-pNA as substrate after 60 mins.
Details: not given
Target sequence in this assay (P27487 whole entry): as above
On to `CC(C)[C@H](N)C(=O)N[C@@H](Cc1c[nH]c2ccccc12)C(=O)O` [VALYLTRYPTOPHAN] (H-Val-Trp-OH), for which it took 65700 nM to reach half-maximal inhibition (IC50).

Another data set has as its target T2, Dipeptidyl peptidase 4 (Sus scrofa, UniProt P22411). In words: Inhibition of porcine DPP4 after 30 mins by luminescence assay.
Details: not given
With `O=C1CC(c2ccc(O)cc2)Oc2cc(O)cc(O)c21` (centres undefined), the IC50 was 2500 nM. Still for that read-out and setting: next, `COc1cc2oc(-c3ccc(O)cc3)cc(=O)c2c(O)c1OC` [CIRSIMARITIN]: 430 nM; `COc1c(O)cc2oc(-c3ccc(O)cc3)cc(=O)c2c1O` [HISPIDULIN]: 490 nM.

The next data set deals with T1, Dipeptidyl peptidase 4. In words: Inhibition of recombinant human DPP4 expressed in baculovirus expression system using Ala-Pro-AMC as substrate by fluorometric analysis.
Details: not given
Target sequence in this assay (P27487 whole entry): as above
As to `Cc1cc(-c2cn([C@@H]3CN[C@H](C(=O)N4CCC(F)(F)C4)C3)nn2)ccc1F`, the IC50 was determined as 1320 nM. On the same count and under the same terms, to `COC(=O)c1cn([C@@H]2CN[C@H](C(=O)N3CCC(F)(F)C3)C2)nn1` belongs 720 nM; to `O=C([C@@H]1C[C@H](n2cc(-c3ccccc3)nn2)CN1)N1CCC(F)(F)C1`, 660 nM.

The target of a further data set is T1, Dipeptidyl peptidase 4. In words: Inhibition of recombinant human DPP4 using H-Gly-Pro-AMC as substrate preincubated for 15 mins followed by substrate addition measured for 20 mins with 1 min interval.
Details: not given
As for `O=C(N/N=C/c1cccc2ccccc12)c1[nH]nc2c1CCCC2`, the IC50 was determined as 3440 nM. Same read-out and setting: to `O=C(N/N=C/c1c(O)ccc2ccccc12)c1n[nH]c2c1CCCC2` belongs 2120 nM.

A further data set deals with T2, Dipeptidyl peptidase 4. In words: Inhibition of porcine kidney DPP4.
Details: not given
As for `CC[C@H](C)[C@H](N)C(=O)N[C@@H](CC(C)C)C(=O)N[C@@H](C)C(=O)N1CCC[C@H]1C(=O)O` (H-ILAP-OH), the IC50 was in the range of 43000 to 159000 nM. Same read-out and setting: to `CC(C)C[C@H](NC(=O)[C@@H](N)CC(C)C)C(=O)N[C@@H](C)C(=O)N1CCC[C@H]1C(=O)O` (H-LLAP-OH) belongs 43000 to 159000 nM; to H-MAGVDHI-OH, 43000 to 159000 nM.

A further data set concerns the target T1, Dipeptidyl peptidase 4. In words: Inhibition of recombinant human DPP4 using Gly-Pro-AMC as substrate after 30 mins by fluorescence assay.
Details: not given
With `Brc1nc2n(n1)CC(c1cc3ccccc3o1)=NN2`, the IC50 was 28000 nM.
